Measured values taken from ChEMBL document CHEMBL5380774, “Fragment-to-Lead Medicinal Chemistry Publications in 2021” (J Med Chem, 2023).

Key:
Adenosine receptor A1 = biological target: T1, Adenosine receptor A1 (Homo sapiens, UniProt P30542); assay: Binding affinity to human A1AR assessed as inhibition constant
T1 sequence (P30542 whole entry): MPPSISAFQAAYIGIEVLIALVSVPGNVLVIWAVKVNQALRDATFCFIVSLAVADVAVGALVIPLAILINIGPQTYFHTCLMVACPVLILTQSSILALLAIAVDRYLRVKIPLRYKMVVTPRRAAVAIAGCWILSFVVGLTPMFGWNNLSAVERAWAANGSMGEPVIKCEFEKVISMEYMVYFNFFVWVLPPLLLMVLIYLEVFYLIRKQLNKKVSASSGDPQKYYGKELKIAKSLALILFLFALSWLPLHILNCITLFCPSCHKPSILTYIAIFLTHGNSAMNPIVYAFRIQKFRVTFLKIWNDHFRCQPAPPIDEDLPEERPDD

[1] = biological target: Proto-oncogene tyrosine-protein kinase receptor Ret (Homo sapiens, UniProt P07949); assay: Inhibition of rearranged during transfection kinase (unknown origin)
Proto-oncogene tyrosine-protein kinase receptor Ret, sequence (P07949 whole entry, the tested form may be a part): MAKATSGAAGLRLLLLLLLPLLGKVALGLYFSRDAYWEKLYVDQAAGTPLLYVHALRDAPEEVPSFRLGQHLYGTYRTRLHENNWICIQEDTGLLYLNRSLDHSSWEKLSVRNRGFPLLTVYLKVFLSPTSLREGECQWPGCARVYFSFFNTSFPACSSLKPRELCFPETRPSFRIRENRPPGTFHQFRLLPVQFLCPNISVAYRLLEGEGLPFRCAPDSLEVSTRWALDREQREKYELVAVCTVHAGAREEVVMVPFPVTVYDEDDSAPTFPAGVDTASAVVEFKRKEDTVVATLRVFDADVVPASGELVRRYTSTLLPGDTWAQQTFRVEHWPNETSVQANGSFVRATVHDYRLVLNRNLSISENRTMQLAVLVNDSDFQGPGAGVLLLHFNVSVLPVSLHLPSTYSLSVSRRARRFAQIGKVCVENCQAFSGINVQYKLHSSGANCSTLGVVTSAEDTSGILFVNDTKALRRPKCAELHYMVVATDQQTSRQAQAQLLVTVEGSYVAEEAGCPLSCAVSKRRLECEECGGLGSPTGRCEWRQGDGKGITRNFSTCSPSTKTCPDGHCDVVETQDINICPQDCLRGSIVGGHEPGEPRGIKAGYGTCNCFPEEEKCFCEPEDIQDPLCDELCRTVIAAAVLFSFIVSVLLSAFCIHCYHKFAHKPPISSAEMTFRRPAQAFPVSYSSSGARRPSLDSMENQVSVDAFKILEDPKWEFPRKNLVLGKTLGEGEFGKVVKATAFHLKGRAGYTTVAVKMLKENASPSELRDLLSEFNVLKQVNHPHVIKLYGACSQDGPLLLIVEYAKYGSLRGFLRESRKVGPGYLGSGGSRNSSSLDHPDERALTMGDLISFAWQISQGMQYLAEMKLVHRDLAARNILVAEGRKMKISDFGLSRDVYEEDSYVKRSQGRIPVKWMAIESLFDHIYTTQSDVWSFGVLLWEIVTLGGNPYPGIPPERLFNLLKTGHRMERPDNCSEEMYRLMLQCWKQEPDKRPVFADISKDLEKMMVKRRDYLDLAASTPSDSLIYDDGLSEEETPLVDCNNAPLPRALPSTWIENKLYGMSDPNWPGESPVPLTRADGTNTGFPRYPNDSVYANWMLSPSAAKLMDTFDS

[2] = biological target: T2, Histone-lysine N-methyltransferase ASH1L (Homo sapiens, UniProt Q9NR48); assay: Binding affinity to ASH1L SET domain (2069 to 2288 residues) (unknown origin) assessed as dissociation constant by ITC analysis
[3] = biological target: T3, Muscarinic acetylcholine receptor M1 (Homo sapiens, UniProt P11229); assay: Agonist activity at human M1 receptor; type: functional
T3 sequence (P11229 whole entry): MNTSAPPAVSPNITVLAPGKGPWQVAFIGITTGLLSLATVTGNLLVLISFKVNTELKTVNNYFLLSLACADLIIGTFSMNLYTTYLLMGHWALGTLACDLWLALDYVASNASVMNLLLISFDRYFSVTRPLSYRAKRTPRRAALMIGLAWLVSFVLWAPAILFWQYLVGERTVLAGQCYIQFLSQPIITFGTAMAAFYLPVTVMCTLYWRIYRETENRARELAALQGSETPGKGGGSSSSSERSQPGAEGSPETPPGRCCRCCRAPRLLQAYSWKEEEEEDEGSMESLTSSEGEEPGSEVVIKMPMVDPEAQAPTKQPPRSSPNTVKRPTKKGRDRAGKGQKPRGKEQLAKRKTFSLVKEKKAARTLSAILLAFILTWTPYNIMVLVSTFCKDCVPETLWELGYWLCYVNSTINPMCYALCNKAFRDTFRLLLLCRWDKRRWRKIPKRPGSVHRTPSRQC

[4] = biological target: YEATS domain-containing protein 4 (Homo sapiens, UniProt O95619); assay: Inhibition of human N-terminal GST tagged GAS41 (1 to 148 residues) incubated for 1 hr by fluorescence polarization assay
YEATS domain-containing protein 4, sequence (O95619 whole entry, the tested form may be a part): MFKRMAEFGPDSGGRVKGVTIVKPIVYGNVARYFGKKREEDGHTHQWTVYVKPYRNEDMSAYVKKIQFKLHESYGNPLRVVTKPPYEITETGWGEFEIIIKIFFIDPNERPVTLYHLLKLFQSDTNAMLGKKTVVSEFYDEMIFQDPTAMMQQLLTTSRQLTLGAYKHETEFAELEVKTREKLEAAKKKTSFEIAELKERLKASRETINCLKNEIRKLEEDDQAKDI

[5] = biological target: T2, Histone-lysine N-methyltransferase ASH1L; assay: Inhibition of N-terminal Mocr-tagged ASH1L (2069 to 2288 residues) (unknown origin) expressed in Escherichia coli BL21 (DE3) by […]

Compound: CC(=O)Nc1nc2ccccc2s1
- Ki (Adenosine receptor A1): 11 µM

Compound: Nc1ncnc2[nH]ncc12
- IC50 [1]: 9.2 µM

Compound: NC(=S)c1cccc(-n2cccc2)c1
- Kd [2]: > 1000 µM

Compound: CCOC(=O)N1CCC(N2CCC(C(N)=O)CC2)CC1
- EC50 [3]: 3.2 µM

Compound: O=C(Nc1ccc(C(=O)N2CC(c3nc4ccccc4s3)C2)s1)[C@@H]1C[C@@H](OCCCCCO[C@H]2CN[C@H](C(=O)Nc3ccc(C(=O)N4CC(c5nc6ccccc6s5)C4)s3)C2)CN1
- IC50 [4]: 0.096 µM

Compound: CN1CC(C(=O)NCc2ccc3c(-c4cccc(C(N)=S)c4)cn(C4CCC(S(=O)(=O)C(F)(F)F)CC4)c3c2)C1 (stereo unspecified)
- IC50 [5]: 0.79 µM
